The results in this text go back to US5232930A, “2-heteroaryl-substituted benzodioxoic having 5-lipoxygenase inhibitory activity” (Imperial Chemical Industries PLC, priority 1991, dated 1993).

In general, IC50 refers to the concentration needed to halve the response being measured. What is called ED50 is the midpoint of the dose-response relation.

For assay [1], the target named is T1, 5-LO (Homo sapiens, UniProt P09917).
T1 construct: incubating a test compound with heparinised human blood, prior to challenge with the calcium ionophore A23187; from tissue; host or cells: heparinised human blood (endogenous enzyme of the blood cells)
T1 sequence (P09917 1-674): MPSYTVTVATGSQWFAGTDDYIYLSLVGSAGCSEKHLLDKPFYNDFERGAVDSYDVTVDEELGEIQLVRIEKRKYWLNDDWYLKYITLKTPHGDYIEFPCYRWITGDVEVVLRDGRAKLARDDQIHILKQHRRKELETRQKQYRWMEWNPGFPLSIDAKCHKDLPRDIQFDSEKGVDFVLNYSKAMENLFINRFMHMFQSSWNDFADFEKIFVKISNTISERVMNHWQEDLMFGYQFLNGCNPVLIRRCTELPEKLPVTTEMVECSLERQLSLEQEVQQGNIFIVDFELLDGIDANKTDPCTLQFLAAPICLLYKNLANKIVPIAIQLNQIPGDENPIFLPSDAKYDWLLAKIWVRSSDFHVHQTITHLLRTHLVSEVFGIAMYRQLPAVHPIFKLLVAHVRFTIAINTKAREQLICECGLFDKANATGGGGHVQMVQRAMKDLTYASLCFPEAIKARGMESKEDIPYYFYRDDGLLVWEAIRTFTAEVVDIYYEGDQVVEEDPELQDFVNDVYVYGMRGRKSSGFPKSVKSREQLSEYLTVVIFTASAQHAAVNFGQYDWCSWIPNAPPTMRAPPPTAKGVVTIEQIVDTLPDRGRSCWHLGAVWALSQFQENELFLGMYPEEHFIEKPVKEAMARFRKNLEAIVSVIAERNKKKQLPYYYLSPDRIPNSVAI
The experiment in a line: test a) in vitro heparinised human blood, calcium ionophore A23187 challenge, LTB4 radioimmunoassay. It is filed as cell-based. On the procedure:
(§1) As stated previously, the benzodioxole derivatives of the formula I are inhibitors of the enzyme 5-LO.
a) An in vitro assay system involving incubating a test compound with heparinised human blood, prior to challenge with the calcium ionophore A23187 and the indirectly measuring the inhibitory effects on 5-LO by assaying the amount of LTB4 using specific radioimmunoassays described by Carey and Forder (F. Carey and R.A. Forder, Prostaglandins Leukotrienes Med., 1986, 22, 57; Prostaglandins, 1984, 28, 666; Brit. J. Pharmacol. 1985, 84, 34P) which involve the use of a protein-LTB4 conjugate produced using the procedure of Young et alia (Prostaglandins, 1983, 26(4), 605-613). The effects of a test compound on the enzyme cyclooxygenase (which is involved in the alternative metabolic pathway for arachidonic acid and gives rise to prostaglandins, thromboxanes and related metabolites) may be measured at the same time using the specific radioimmunoassay for thromboxane B2 (T×B2) described by Carey and Forder (see above). This test provides an indication of the effects of a test compound against 5-LO and also cyclooxygenase in the presence of blood cells and proteins. It permits the selectivity of the inhibitory effect on 5-LO or cyclooxygenase to be assessed.

For assay [2], the target named is T2, 5-LO (Rattus norvegicus, UniProt P12527).
T2 construct: liberation of LTB4 induced by zymosan within an air pouch generated within the subcutaneous tissue of the back of male rats; from tissue; host or cells: live male rats, zymosan-inflamed subcutaneous air pouch (endogenous enzyme)
T2 sequence (P12527 1-673): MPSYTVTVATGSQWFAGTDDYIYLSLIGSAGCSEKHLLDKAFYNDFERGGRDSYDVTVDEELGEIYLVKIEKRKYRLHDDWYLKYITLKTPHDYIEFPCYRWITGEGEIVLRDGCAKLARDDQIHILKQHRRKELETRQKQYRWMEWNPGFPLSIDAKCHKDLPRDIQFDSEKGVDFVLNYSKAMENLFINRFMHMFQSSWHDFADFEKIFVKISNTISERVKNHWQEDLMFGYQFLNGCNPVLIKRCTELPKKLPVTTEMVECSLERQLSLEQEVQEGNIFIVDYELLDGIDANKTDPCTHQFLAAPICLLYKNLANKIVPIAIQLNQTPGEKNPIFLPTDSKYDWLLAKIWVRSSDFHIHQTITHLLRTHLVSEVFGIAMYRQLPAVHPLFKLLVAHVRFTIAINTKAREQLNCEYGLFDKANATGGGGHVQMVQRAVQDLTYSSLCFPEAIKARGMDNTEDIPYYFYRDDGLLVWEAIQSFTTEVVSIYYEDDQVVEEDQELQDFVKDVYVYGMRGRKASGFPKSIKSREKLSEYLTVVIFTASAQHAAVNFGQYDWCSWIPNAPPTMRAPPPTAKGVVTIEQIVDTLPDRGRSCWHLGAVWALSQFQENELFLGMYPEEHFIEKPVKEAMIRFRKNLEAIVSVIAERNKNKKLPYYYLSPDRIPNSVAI
The experiment in a line: test c) in vivo zymosan-induced LTB4 liberation in rat air pouch. The following applies: oral, male rats, 3 hours. On the procedure:
as §1
c) An in vivo system involving measuring the effects of a test compound administered orally against the liberation of LTB4 induced by zymosan within an air pouch generated within the subcutaneous tissue of the back of male rats. The rats are anaesthetised and air pouches are formed by the injection of sterile air (20 ml). A further injection of air (10 ml) is similarly given after 3 days. At 6 days after the initial air injection the test compound is administered (usually orally as the suspension produced when a solution of the test compound in dimethylsulphoxide is added to hydroxypropylmethylcellulose), followed by the intrapouch injection of zymosan (1 ml of a 1% suspension in physiological saline). After 3 hours the rats are killed, the air pouches are lavaged with physiological saline, and the specific radioimmunoassay described above is used to assay LTB4 in the washings. This test provides an indication of inhibitory effects against 5-LO in an inflammatory milieu.

Take `COC1(c2ccc3c(c2)OC(c2ccc4c(ccc(=O)n4C)c2)O3)CCOCC1` (centres unmarked) [5-(4-methoxytetrahydropyran-4-yl)-2-(1-methyl-2-oxo-1,2-dihydroquinolin-6-yl)benzo-1,3-dioxole]: at 5-LO [1], the IC50 amounted to 380 nM. Besides, the ED50 at 5-LO [2] is less than 0.5 mg/kg.
